Drawing on patent US20230265094A1, “RIPK1 INHIBITORS AND METHODS OF USE” (Merck Sharp & Dohme LLC, priority 2020, published 2023), this text covers EC50 for 26 compounds.

Structures can show the parent of a compound that is named as a salt.

This experiment deals with T1, RIPK1 (Homo sapiens, UniProt Q13546).
T1 construct: recombinant GST-RIPK1 kinase domain (residues 1-327) enzyme produced from baculovirus-transfected Sf21 cells; host or cells: baculovirus-transfected Sf21 insect cells
T1 sequence (Q13546 1-327): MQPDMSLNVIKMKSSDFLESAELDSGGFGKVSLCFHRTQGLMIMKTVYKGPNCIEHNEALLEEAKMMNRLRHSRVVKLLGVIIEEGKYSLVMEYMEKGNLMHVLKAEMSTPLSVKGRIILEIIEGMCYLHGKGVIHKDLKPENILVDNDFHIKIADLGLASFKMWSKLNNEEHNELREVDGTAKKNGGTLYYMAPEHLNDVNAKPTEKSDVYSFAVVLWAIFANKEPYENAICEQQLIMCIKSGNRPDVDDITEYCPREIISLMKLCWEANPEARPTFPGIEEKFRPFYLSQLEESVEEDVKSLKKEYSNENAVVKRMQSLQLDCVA
Description: RIPK1-ADP-Glo enzymatic assay. It counts as biochemical. The note with it: ADP-Glo luminescent ADP detection; 25 nM GST-RIPK1 kinase domain (residues 1-327), 300 μM ATP, dephosphorylated-MBP substrate; 30 min pre-incubation, 150 min reaction. Summed up:
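GST-RIPK1 kinase domain (residues 1-327, Sf21-expressed), 25 nM final, pre-incubated 30 min with compound (10-point 1:3 series from 100000 nM), then reacted 150 min with 300 μM ATP and 3 μM dephosphorylated MBP in HEPES pH 7.3 buffer. ADP read by ADP-Glo luminescence; EC50 from four-parameter fit.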

`C[C@H]1[C@@H](Oc2ccc(F)cc2)CN1C(=O)N1N=CC[C@H]1c1cncc(C#N)c1` [Example 2.25, 5-((S)-1-((2S,3S)-3-(4-fluorophenoxy)-2-methylazetidine-1-carbonyl)-4,5-dihydro-1H-pyrazol-5-yl)nicotinonitrile]: the EC50 came to 12.8 nM.
In the case of `C[C@@H]1[C@@H](Oc2ccc(F)cc2)CN1C(=O)N1N=CC[C@H]1c1cc(F)cc(F)c1` [Example 2.26, ((S)-5-(3,5-difluorophenyl)-4,5-dihydro-1H-pyrazol-1-yl)((2R,3S)-3-(4-fluorophenoxy)-2-methylazetidin-1-yl)methanone], the EC50 was determined as 7.8 nM.
Compound `C[C@H]1[C@@H](Oc2ccc(F)cc2)CN1C(=O)N1N=CC[C@H]1c1cc(F)cc(F)c1` [Example 2.27, ((S)-5-(3,5-difluorophenyl)-4,5-dihydro-1H-pyrazol-1-yl)((2S,3S)-3-(4-fluorophenoxy)-2-methylazetidin-1-yl)methanone] yielded an EC50 of 6.8 nM.
The same measure for `C[C@@H]1[C@@H](Oc2ccc(F)cc2)CN1C(=O)N1N=CC[C@H]1c1ccc(Cl)cc1` [Example 2.28, ((S)-5-(4-chlorophenyl)-4,5-dihydro-1H-pyrazol-1-yl)((2R,3S)-3-(4-fluorophenoxy)-2-methylazetidin-1-yl)methanone]: 5.9 nM; for `Cc1ncc([C@@H]2CC=NN2C(=O)N2CC(C)(Oc3ccc(F)cc3)C2)cc1F` [Example 2.30, (S)-(5-(5-fluoro-6-methylpyridin-3-yl)-4,5-dihydro-1H-pyrazol-1-yl)(3-(4-fluorophenoxy)-3-methylazetidin-1-yl)methanone]: 14.2 nM; for `CC1(Oc2ccc(F)cc2)CN(C(=O)N2N=CC[C@H]2c2cncc(C#N)c2)C1` [Example 2.32, (S)-5-(1-(3-(4-fluorophenoxy)-3-methylazetidine-1-carbonyl)-4,5-dihydro-1H-pyrazol-5-yl)nicotinonitrile]: 25.5 nM.
The figure for `CC1(Oc2ccc(F)cc2)CN(C(=O)N2N=CC[C@H]2c2cc(F)cc(F)c2)C1` [Example 2.33, (S)-(5-(3,5-difluorophenyl)-4,5-dihydro-1H-pyrazol-1-yl)(3-(4-fluorophenoxy)-3-methylazetidin-1-yl)methanone] is 19.8 nM; for `CC1(Oc2ccc(F)cc2)CN(C(=O)N2N=CC[C@H]2c2ccc(Cl)cc2)C1` [Example 2.34, (S)-(5-(4-chlorophenyl)-4,5-dihydro-1H-pyrazol-1-yl)(3-(4-fluorophenoxy)-3-methylazetidin-1-yl)methanone] it is 12.7 nM; for `CC1(Oc2ccnc(C#N)c2)CN(C(=O)N2N=CC[C@H]2c2cc(F)cc(F)c2)C1` [Example 2.35, (S)-4-((1-(5-(3,5-difluorophenyl)-4,5-dihydro-1H-pyrazole-1-carbonyl)-3-methylazetidin-3-yl)oxy)picolinonitrile] it is 24.2 nM.
As for `C[C@H]1[C@@H](Oc2ccnc(C#N)c2)CN1C(=O)N1N=CC[C@H]1c1cc(F)cc(F)c1` [Example 2.36, 4-(((25,3S)-1-((S)-5-(3,5-difluorophenyl)-4,5-dihydro-1H-pyrazole-1-carbonyl)-2-methylazetidin-3-yl)oxy)picolinonitrile], it took 20.5 nM to reach a half-maximal effect (EC50).
With `C[C@@H]1[C@@H](Oc2ccnc(C#N)c2)CN1C(=O)N1N=CC[C@H]1c1cc(F)cc(F)c1` [Example 2.37, 4-(((2R,3S)-1-((S)-5-(3,5-difluorophenyl)-4,5-dihydro-1H-pyrazole-1-carbonyl)-2-methylazetidin-3-yl)oxy)picolinonitrile], the EC50 was found to be 6.6 nM.
The figure for `C[C@@H]1[C@H](Oc2ccnc(C#N)c2)CN1C(=O)N1N=CC[C@H]1c1cc(F)cc(F)c1` [Example 2.38, 4-(((2R,3R)-1-((S)-5-(3,5-difluorophenyl)-4,5-dihydro-1H-pyrazole-1-carbonyl)-2-methylazetidin-3-yl)oxy)picolinonitrile] is 85.9 nM; for `N#Cc1cncc([C@@H]2CC=NN2C(=O)N2CC(Oc3ccc(F)cc3)C2)c1` [Example 2.39, (S)-5-(1-(3-(4-fluorophenoxy)azetidine-1-carbonyl)-4,5-dihydro-1H-pyrazol-5-yl)nicotinonitrile] it is 33.1 nM; for `N#Cc1cc(C(F)(F)C2CN(C(=O)N3N=CC[C@H]3c3cc(F)cc(F)c3)C2)ccn1` [Example 2.41, (S)-4-((1-(5-(3,5-difluorophenyl)-4,5-dihydro-1H-pyrazole-1-carbonyl)azetidin-3-yl)difluoromethyl)picolinonitrile] it is 22.9 nM.
The figure for `N#Cc1cccc(OC2CN(C(=O)N3N=CC[C@H]3c3cc(F)cc(F)c3)C2)c1` [Example 2.44, (S)-3-((1-(5-(3,5-difluorophenyl)-4,5-dihydro-1H-pyrazole-1-carbonyl)azetidin-3-yl)oxy)benzonitrile] is 11.9 nM; for `CCC1(Oc2ccccc2)CN(C(=O)N2N=CC[C@H]2c2cc(F)cc(F)c2)C1` [Example 2.45, (S)-(5-(3,5-difluorophenyl)-4,5-dihydro-1H-pyrazol-1-yl)(3-ethyl-3-phenoxyazetidin-1-yl)methanone] it is 57.4 nM; for `N#Cc1cc(CC2CN(C(=O)N3N=CC[C@H]3c3cc(F)cc(F)c3)C2)ccn1` [Example 2.46, (S)-4-((1-(5-(3,5-difluorophenyl)-4,5-dihydro-1H-pyrazole-1-carbonyl)azetidin-3-yl)methyl)picolinonitrile] it is 46.3 nM.
The figure for `O=C(N1CC(OC2CCC2)C1)N1N=CC[C@H]1c1cc(F)cc(F)c1` [Example 2.47, (S)-(3-cyclobutoxyazetidin-1-yl)(5-(3,5-difluorophenyl)-4,5-dihydro-1H-pyrazol-1-yl)methanone] is 92.7 nM; for `N#Cc1cc(OC2CN(C(=O)N3N=CC[C@H]3c3cc(F)cc(F)c3)C2)ccn1` [Example 3.1, (S)-4-((1-(5-(3,5-difluorophenyl)-4,5-dihydro-1H-pyrazole-1-carbonyl)azetidin-3-yl)oxy)picolinonitrile, TFA Salt] it is 6.6 nM; for `Cn1c(OC2CN(C(=O)N3N=CC[C@H]3c3cc(F)cc(F)c3)C2)nc2ccccc21` [Example 3.2, (S)-(5-(3,5-difluorophenyl)-4,5-dihydro-1H-pyrazol-1-yl)(3-((1-methyl-1H-benzo[d]imidazol-2-yl)oxy)azetidin-1-yl)methanone, TFA salt] it is 97 nM.
The compound `Cc1ncnc(OC2CN(C(=O)N3N=CC[C@H]3c3cc(F)cc(F)c3)C2)c1C` [Example 3.3, (S)-(5-(3,5-difluorophenyl)-4,5-dihydro-1H-pyrazol-1-yl)(3-((5,6-dimethylpyrimidin-4-yl)oxy)azetidin-1-yl)methanone, TFA salt] showed an EC50 of 75.9 nM.
Compound `CSc1nc(C)cc(OC2CN(C(=O)N3N=CC[C@H]3c3cc(F)cc(F)c3)C2)n1` [Example 3.4, (S)-(5-(3,5-difluorophenyl)-4,5-dihydro-1H-pyrazol-1-yl)(3-((6-methyl-2-(methylthio)pyrimidin-4-yl)oxy)azetidin-1-yl)methanone, TFA salt] displayed a concentration giving a half-maximal response (EC50) of 38.1 nM.
As to `Cc1csc(OC2CN(C(=O)N3N=CC[C@H]3c3cc(F)cc(F)c3)C2)n1` [Example 3.5, (S)-(5-(3,5-difluorophenyl)-4,5-dihydro-1H-pyrazol-1-yl)(3-((4-methylthiazol-2-yl)oxy)azetidin-1-yl)methanone, TFA salt], the response was half-maximal at 8.9 nM (EC50).
`O=C(N1CC(Oc2nc3ccncc3s2)C1)N1N=CC[C@H]1c1cc(F)cc(F)c1` [Example 3.6, (S)-(5-(3,5-difluorophenyl)-4,5-dihydro-1H-pyrazol-1-yl)(3-(thiazolo[5,4-c]pyridin-2-yloxy)azetidin-1-yl)methanone, TFA salt] returned an EC50 of 18.2 nM.
In turn, `Cc1nc(OC2CN(C(=O)N3N=CC[C@H]3c3cc(F)cc(F)c3)C2)cc(C(C)(C)O)n1` [Example 3.7, (S)-(5-(3,5-difluorophenyl)-4,5-dihydro-1H-pyrazol-1-yl)(3-((6-(2-hydroxypropan-2-yl)-2-methylpyrimidin-4-yl)oxy)azetidin-1-yl)methanone, TFA salt] had an EC50 of 1490 nM.
`O=C(N1CC(Oc2ncc(Cn3cccn3)s2)C1)N1N=CC[C@H]1c1cc(F)cc(F)c1` [Example 3.8, (S)-(3-((5-((1H-pyrazol-1-yl)methyl)thiazol-2-yl)oxy)azetidin-1-yl)(5-(3,5-difluorophenyl)-4,5-dihydro-1H-pyrazol-1-yl)methanone, TFA salt] displayed an EC50 of 105 nM.
